Measured values reported in patent US6737383B1, “Herbicidal oxadiazolidines” (priority 1999, dated 2004).

Legend:
duck salad = assay: Test B flood test duck salad; format: in vivo, Heteranthera limosa
In short: (§1)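 Plants were grown to the 2-leaf stage before treatment with test chemical, then held in a greenhouse for twelve to sixteen days. Injury was visually rated against untreated controls on a 0–10 scale, where 0 is no effect and 10 is complete control.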

wheat = assay: Test B pre/postemergence wheat; format: in vivo, Triticum aestivum
In short: (§2)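 Test chemicals in a non-phytotoxic solvent mixture with surfactant were sprayed preemergence onto planted seeds and postemergence onto plants 2 to 18 cm tall (1- to 4-leaf stage). After twelve to sixteen days in a greenhouse, injury was visually rated against untreated controls from 0 (no effect) to 10 (complete control).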

purple nutsedge = assay: Test B pre/postemergence purple nutsedge; format: in vivo, Cyperus rotundus
In short: as §2

morningglory = assay: Test B pre/postemergence morningglory; format: in vivo, Ipomoea hederacea
In short: as §2

bedstraw = assay: Test B pre/postemergence bedstraw; format: in vivo, Galium aparine
In short: as §2

velvetleaf = assay: Test B pre/postemergence velvetleaf; format: in vivo, Abutilon theophrasti
In short: as §2

corn = assay: Test B pre/postemergence corn; format: in vivo, Zea mays
In short: as §2

smallflower flatsedge = assay: Test B flood test smallflower flatsedge; format: in vivo, Cyperus difformis
In short: as §1

crabgrass = assay: Test B pre/postemergence crabgrass; format: in vivo, Digitaria sanguinalis
In short: as §2

cocklebur = assay: Test B pre/postemergence cocklebur; format: in vivo, Xanthium strumarium
In short: as §2

wild oat = assay: Test B pre/postemergence wild oat; format: in vivo, Avena fatua
In short: as §2

rape = assay: Test B pre/postemergence rape; format: in vivo, Brassica napus
In short: as §2

blackgrass = assay: Test B pre/postemergence blackgrass; format: in vivo, Alopecurus myosuroides
In short: as §2

rice = assay: Test B flood test rice; format: in vivo, Oryza sativa
In short: as §1

giant foxtail = assay: Test B pre/postemergence giant foxtail; format: in vivo, Setaria faberii
In short: as §2

surinam grass = assay: Test B pre/postemergence surinam grass; format: in vivo, Brachiaria decumbens
In short: as §2

bamyardgrass = assay: Test B flood test barnyardgrass; format: in vivo, Echinochloa crus-galli
In short: as §1

sugar beet = assay: Test B pre/postemergence sugar beet; format: in vivo, Beta vulgaris
In short: as §2

soybean = assay: Test B pre/postemergence soybean; format: in vivo, Glycine max
In short: as §2

pigweed = assay: Test B pre/postemergence pigweed; format: in vivo, Amaranthus retroflexus
In short: as §2

[1] = Rate 62 g/ha, headed Pre-emergence (flood test species), scale 0 to 10 (0 no effect, 10 complete control)
[2] = Rate 125 g/ha, Pre-emergence, flood test species, scale 0 to 10 where 0 is no effect and 10 is complete control
[3] = Rate 250 g/ha, Pre-emergence, flood-test species, scale 0 to 10, 0 is no effect, 10 is complete control
[4] = Rate 500 g/ha, Pre-emergence, flood test species, scale 0 to 10 (0 no effect, 10 complete control)
[5] = Preemergence, Rate 62 g/ha, scale of 0 to 10 where 0 is no effect and 10 is complete control
[6] = Preemergence, Rate 250 g/ha, scale of 0 to 10 where 0 is no effect and 10 is complete control
[7] = Preemergence, Rate 500 g/ha, scale of 0 to 10 where 0 is no effect and 10 is complete control
[8] = Rate 62 g/ha, Postemergence, scale of 0 to 10 where 0 is no effect and 10 is complete control
[9] = Rate 125 g/ha, Preemergence, scale of 0 to 10 where 0 is no effect and 10 is complete control
[10] = Rate 500 g/ha, Postemergence, scale 0 to 10, 0 no effect, 10 complete control
[11] = Rate 125 g/ha, Postemergence, scale 0 to 10

For Cc1ccccc1-n1c(=O)on(C(=O)N(c2ccc(F)cc2)C(C)C2CC2)c1=O (centres unmarked) [Compound 240], the “Ducksalad plant response rating” value (duck salad; [1]) was 0, the “Ducksalad plant response rating” value (duck salad; [2]) was 0 and the “Ducksalad plant response rating” value (duck salad; [3]) was 0. The “Ducksalad plant response rating” value (duck salad; [4]) was 0, the “Wheat plant response rating” value (wheat; [5]) was 0 and the “Wheat plant response rating” value (wheat; [6]) was 0. The “Plant response rating, Wheat” value (wheat; [7]) was 0, the “Wheat plant response rating” value (wheat; [8]) was 0 and the “Wheat plant response rating” value (wheat; [9]) was 0. For the same compound, the “Wheat plant response rating” value (wheat; [10]) was 2, the “Nutsedge plant response rating” value (purple nutsedge; [6]) was 0 and the “Nutsedge plant response rating” value (purple nutsedge; [8]) was 0. The “Plant response rating (0 to 10; 0 is no effect, 10 is complete control), Nutsedge” value (purple nutsedge; Rate 250 g/ha, Postemergence) was 0, the “Nutsedge plant response rating” value (purple nutsedge; [10]) was 0 and the “Morningglory plant response rating” value (morningglory; [5]) was 0. For the same compound, the “Morningglory plant response rating” value (morningglory; [6]) was 0, the “Plant response rating, Morningglory” value (morningglory; [7]) was 0 and the “Morningglory plant response rating” value (morningglory; [8]) was 5. The “Morningglory plant response rating” value (morningglory; [9]) was 0, the “Plant response rating (0 to 10; 0 is no effect, 10 is complete control), Morningglory” value (morningglory; Rate 250 g/ha, Postemergence) was 10 and the “Morningglory plant response rating” value (morningglory; [10]) was 10. The “Bedstraw plant response rating” value (bedstraw; [5]) was 0, the “Bedstraw plant response rating” value (bedstraw; [6]) was 0 and the “Plant response rating, Bedstraw” value (bedstraw; [7]) was 0. The “Bedstraw plant response rating” value (bedstraw; [8]) was 0, the “Bedstraw plant response rating” value (bedstraw; [11]) was 3 and the “Bedstraw plant response rating” value (bedstraw; [9]) was 0. The “Plant response rating (0 to 10; 0 is no effect, 10 is complete control), Bedstraw” value (bedstraw; Rate 250 g/ha, Postemergence) was 3, the “Bedstraw plant response rating” value (bedstraw; [10]) was 5 and the “Velvetleaf plant response rating” value (velvetleaf; [5]) was 0. For the same compound, the “Velvetleaf plant response rating” value (velvetleaf; [6]) was 0, the “Plant response rating, Velvetleaf” value (velvetleaf; [7]) was 2 and the “Velvetleaf plant response rating” value (velvetleaf; [8]) was 0. For the same compound, the “Velvetleaf plant response rating” value (velvetleaf; [9]) was 0, the “Velvetleaf plant response rating” value (velvetleaf; [10]) was 3 and the “Corn plant response rating” value (corn; [5]) was 0. For the same compound, the “Corn plant response rating” value (corn; [6]) was 0, the “Plant response rating, Corn” value (corn; [7]) was 0 and the “Corn plant response rating” value (corn; [8]) was 0. The “Corn plant response rating” value (corn; [11]) was 0, the “Corn plant response rating” value (corn; [9]) was 0 and the “Plant response rating (0 to 10; 0 is no effect, 10 is complete control), Corn” value (corn; Rate 250 g/ha, Postemergence) was 0. The “Corn plant response rating” value (corn; [10]) was 0, the “S. Flatsedge plant response rating” value (smallflower flatsedge; [1]) was 0 and the “S. Flatsedge plant response rating” value (smallflower flatsedge; [2]) was 0. For the same compound, the “S. Flatsedge plant response rating” value (smallflower flatsedge; [3]) was 0, the “S. Flatsedge plant response rating” value (smallflower flatsedge; [4]) was 0 and the “Crabgrass plant response rating” value (crabgrass; [5]) was 2. The “Crabgrass plant response rating” value (crabgrass; [6]) was 9, the “Plant response rating, Crabgrass” value (crabgrass; [7]) was 9 and the “Crabgrass plant response rating” value (crabgrass; [8]) was 0. For the same compound, the “Crabgrass plant response rating” value (crabgrass; [9]) was 4, the “Plant response rating (0 to 10; 0 is no effect, 10 is complete control), Crabgrass” value (crabgrass; Rate 250 g/ha, Postemergence) was 2 and the “Crabgrass plant response rating” value (crabgrass; [10]) was 4. The “Cocklebur plant response rating” value (cocklebur; [5]) was 0, the “Cocklebur plant response rating” value (cocklebur; [6]) was 0 and the “Plant response rating, Cocklebur” value (cocklebur; [7]) was 0. For the same compound, the “Cocklebur plant response rating” value (cocklebur; [8]) was 0, the “Cocklebur plant response rating” value (cocklebur; [11]) was 1 and the “Cocklebur plant response rating” value (cocklebur; [9]) was 0. The “Plant response rating (0 to 10; 0 is no effect, 10 is complete control), Cocklebur” value (cocklebur; Rate 250 g/ha, Postemergence) was 1, the “Cocklebur plant response rating” value (cocklebur; [10]) was 1 and the “Wild oats plant response rating” value (wild oat; [5]) was 0. For the same compound, the “Wild oats plant response rating” value (wild oat; [6]) was 0, the “Plant response rating, Wild oats” value (wild oat; [7]) was 0 and the “Wild oats plant response rating” value (wild oat; [8]) was 0. The “Wild oats plant response rating” value (wild oat; [9]) was 0, the “Wild oats plant response rating” value (wild oat; [10]) was 2 and the “Rape plant response rating” value (rape; [5]) was 0. The “Rape plant response rating” value (rape; [6]) was 0, the “Plant response rating, Rape” value (rape; [7]) was 0 and the “Rape plant response rating” value (rape; [8]) was 0. The “Rape plant response rating” value (rape; [9]) was 0, the “Plant response rating (0 to 10; 0 is no effect, 10 is complete control), Rape” value (rape; Rate 250 g/ha, Postemergence) was 0 and the “Rape plant response rating” value (rape; [10]) was 0. For the same compound, the “Blackgrass plant response rating” value (blackgrass; [5]) was 0, the “Blackgrass plant response rating” value (blackgrass; [6]) was 0 and the “Plant response rating, Blackgrass” value (blackgrass; [7]) was 2. For the same compound, the “Blackgrass plant response rating” value (blackgrass; [8]) was 0, the “Blackgrass plant response rating” value (blackgrass; [11]) was 0 and the “Blackgrass plant response rating” value (blackgrass; [9]) was 0. For the same compound, the “Plant response rating (0 to 10; 0 is no effect, 10 is complete control), Blackgrass” value (blackgrass; Rate 250 g/ha, Postemergence) was 0, the “Blackgrass plant response rating” value (blackgrass; [10]) was 5 and the “Rice plant response rating” value (rice; [1]) was 0. The “Rice plant response rating” value (rice; [2]) was 0, the “Rice plant response rating” value (rice; [3]) was 0 and the “Rice plant response rating” value (rice; [4]) was 0. For the same compound, the “Giant foxtail plant response rating” value (giant foxtail; [5]) was 5, the “Giant foxtail plant response rating” value (giant foxtail; [6]) was 10 and the “Plant response rating, Giant foxtail” value (giant foxtail; [7]) was 10. For the same compound, the “Giant foxtail plant response rating” value (giant foxtail; [8]) was 0, the “Giant foxtail plant response rating” value (giant foxtail; [9]) was 5 and the “Plant response rating (0 to 10; 0 is no effect, 10 is complete control), Giant foxtail” value (giant foxtail; Rate 250 g/ha, Postemergence) was 0. For the same compound, the “Giant foxtail plant response rating” value (giant foxtail; [10]) was 2, the “B. signalgrass plant response rating” value (surinam grass; [5]) was 0 and the “B. signalgrass plant response rating” value (surinam grass; [6]) was 0. The “Plant response rating, B. signalgrass” value (surinam grass; [7]) was 3, the “B. signalgrass plant response rating” value (surinam grass; [8]) was 0 and the “B. signalgrass plant response rating” value (surinam grass; Rate 125 g/ha, Postemergence, scale 0 (no effect) to 10 (complete control)) was 0. For the same compound, the “B. signalgrass plant response rating” value (surinam grass; [9]) was 0, the “Plant response rating (0 to 10; 0 is no effect, 10 is complete control), B. signalgrass” value (surinam grass; Rate 250 g/ha, Postemergence) was 0 and the “B. signalgrass plant response rating” value (surinam grass; [10]) was 0. The “Barnyardgrass plant response rating” value (bamyardgrass; [1]) was 0, the “Barnyardgrass plant response rating” value (bamyardgrass; [2]) was 0 and the “Barnyardgrass plant response rating” value (bamyardgrass; [3]) was 0. The “Barnyardgrass plant response rating” value (bamyardgrass; [4]) was 0, the “Sugarbeets plant response rating” value (sugar beet; [5]) was 0 and the “Sugarbeets plant response rating” value (sugar beet; [6]) was 0. For the same compound, the “Plant response rating, Sugarbeets” value (sugar beet; [7]) was 0, the “Sugarbeets plant response rating” value (sugar beet; [8]) was 0 and the “Sugarbeets plant response rating” value (sugar beet; [9]) was 0. The “Sugarbeets plant response rating” value (sugar beet; [10]) was 3, the “Soybean plant response rating” value (soybean; [5]) was 0 and the “Soybean plant response rating” value (soybean; [6]) was 0. The “Plant response rating, Soybean” value (soybean; [7]) was 0, the “Soybean plant response rating” value (soybean; [8]) was 0 and the “Soybean plant response rating” value (soybean; [9]) was 0. For the same compound, the “Soybean plant response rating” value (soybean; [10]) was 3, the “Redroot pigweed plant response rating” value (pigweed; [5]) was 0 and the “Redroot pigweed plant response rating” value (pigweed; [6]) was 0. For the same compound, the “Plant response rating, Redroot pigweed” value (pigweed; [7]) was 0, the “Redroot pigweed plant response rating” value (pigweed; [8]) was 0 and the “Redroot pigweed plant response rating” value (pigweed; [9]) was 0. The “Plant response rating (0 to 10; 0 is no effect, 10 is complete control), Redroot pigweed” value (pigweed; Rate 250 g/ha, Postemergence) was 2 and the “Redroot pigweed plant response rating” value (pigweed; [10]) was 7.
